In ChEMBL document CHEMBL3886312, “Sepiapterin reductase inhibitors for the treatment of pain” (2015):

Experiments:
[1] = target: T1, Sepiapterin reductase (Homo sapiens, UniProt P35270); assay: (§1) The LC/MS assay monitors the product formation (L-biopterin) and the chromogenic assay measures OD at 420 nm.N-methoxyacetyl serotonin was used as a reference compound (positive control). […] (2) Add 40 uL enzyme/assay buffer.
[2] = target: T1, Sepiapterin reductase; assay: as §1, with “LC/MS assay: To screen for SPR inhibition, a biochemical assay based on LC/MS (and chromogenic) read-out has been developed. The” for “The”

T1 sequence (P35270 whole entry): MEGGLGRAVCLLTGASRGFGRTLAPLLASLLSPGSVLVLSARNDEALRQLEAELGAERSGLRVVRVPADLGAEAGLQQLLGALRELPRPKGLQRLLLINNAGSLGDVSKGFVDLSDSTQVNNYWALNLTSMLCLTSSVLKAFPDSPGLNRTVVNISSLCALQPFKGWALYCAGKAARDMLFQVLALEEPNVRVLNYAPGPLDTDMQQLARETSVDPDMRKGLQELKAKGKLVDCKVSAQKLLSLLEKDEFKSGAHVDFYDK

## COCC(=O)NCCc1c[nH]c2ccc(NS(C)(=O)=O)cc12
[1]
  IC50: 1100 nM
[2]
  IC50: 1000 nM
